# Laboratory results reported in patent US7795306B2, “Triterpene derivatives for the treatment of cancer and inflammatory disease by inhibition of NF-κB” (priority 2006, dated 2010).
# pIC50: −log10 of the molar value. Entries after “also recorded” stand apart in the source; their conditions may differ. Square brackets hold non-standard residues; d marks the D form. Peptide text beside a SMILES is read from it.
# Experiments:
# K562 = test: cell proliferation by MTS assay for 72 h, K562; assay type: cell-based, human; settings: K562 tumor cell line
# From the text: (§1) PM 2011 (1) inhibits tumor cell lines independent of endothelin receptor A (ETA) inhibition: Others have disclosed PM 2011 (1) and its derivatives as potent endothelin receptor antagonists (WO 92/12991, EP 526,642, U.S. Pat. No. 5,248,807, U.S. Pat. No. 5,463,107 and U.S. Pat. No. 5,587,505). We have used human tumor cell lines to evaluate the effects of PM 2011 (1) on endothelin-1 (ET-1) dependent biologic functions. Some of these cell lines are well characterized for the expression and role of ET-1, ETA and ETB (16, 41). […] To validate three cell lines, we studied the effects of BQ123, BQ788, PM2010, PM2011 and PM2012 on cell proliferation by MTS assay for 72 h (16).
# C33A = test: cell proliferation by MTS assay for 72 h, C33A; assay type: cell-based, human
# From the text: as §1
# HL60 = test: cell proliferation by MTS assay for 72 h, HL60; assay type: cell-based, human
# From the text: as §1
# SK-Mel-28 = test: cell proliferation by MTS assay for 72 h, SK-Mel-28; assay type: cell-based, human; settings: for growth inhibition of SK-Mel 28 cell line (in words): SK-Mel 28, MTS assay
# From the text: as §1
# SiHa = test: cell proliferation by MTS assay for 72 h, SiHa; assay type: cell-based, human; settings: SiHa tumor cell line
# From the text: as §1
# NF-κB = test: TNF-α-dependent activation of NF-κB binding to κB site in nuclear extracts of HeLa cells, ELISA (Panomics); assay type: cell-based; settings: HeLa cell nuclear extracts, FIG. 1
# From the text: To further explore the additional molecular target(s) for PM2011, we postulated that these compounds could antagonize the activation of NF-κB. To test this hypothesis, we evaluated the effects of PM2010, PM2011 and PM2012 on TNF-α-dependent activation of NF-κB binding to κB site in nuclear extracts of HeLa cells by an ELISA (Panomics) as recommended.
# [1] = Homo sapiens, 100 μM, read-out: % Inhibition at 100 μM (i)
molecule,measurement,setting,value
CCCC[C@@H](NC(=O)[C@@H](Cc1cn(C(=O)OC)c2ccccc12)NC(=O)[C@H](CC(C)(C)C)NC(=O)N1[C@H](C)CCC[C@@H]1C)C(=O)O [BQ788],inhibition at 100 µM,K562; [1],0%
same,pIC50,"C33A; Homo sapiens, C-33-A, C33A tumor cell line, MTS assay, 72 h",4.21
same,pIC50,"HL60; Homo sapiens, HL-60, HL60 tumor cell line",4.35
same,pIC50,"SK-Mel-28; Homo sapiens, SK-Mel-28 tumor cell line, MTS assay",4.09
same,growth inhibition of SK-Mel 28 cell line (in words),SK-Mel-28,inhibited the growth
same,inhibition at 100 µM,SiHa; [1],45%
Myriceric acid A [PM2011],pIC50,K562,6.00
same,pIC50,"C33A; C33A tumor cell line, MTS assay, 72 h",5.89
same,inhibition of C33A (in words),"C33A; HPV-negative cell line C33A, neither secretes ET-1 nor expresses ETA",inhibition
same,NF-κB binding to κB site / inhibition of NF-κB activation (in words),NF-κB,dose-dependent inhibition; also recorded: dose-dependent decrease
same,pIC50,HL60; HL60 tumor cell line,5.64
same,pIC50,"SK-Mel-28; SK-Mel-28 tumor cell line, MTS assay",6.05
same,pIC50,SiHa,5.52
CC(C)C[C@@H]1NC(=O)[C@@H](C(C)C)NC(=O)[C@@H]2CCCN2C(=O)[C@@H](CC(=O)O)NC(=O)[C@@H](Cc2c[nH]c3ccccc23)NC1=O [BQ-123] (cyclo(L[dW][dD]P[dV])),% Inhibition at 100 μM (i),K562; 100 μM,30%
same,% Inhibition at 100 μM (i),"C33A; C33A tumor cell line, 100 μM, MTS assay, 72 h",20% i
same,pIC50,HL60; HL60 tumor cell line,4.34
same,growth inhibition of SK-Mel 28 cell line (in words),SK-Mel-28,no growth inhibition
same,% Inhibition at 100 μM (i),"SK-Mel-28; SK-Mel-28 tumor cell line, 100 μM, MTS assay",0% i
same,% Inhibition at 100 μM (i),SiHa; 100 μM,0% i
